Assay results as given in US20070213301A1 (ACHILLION PHARMACEUTICALS, INC., priority 2006, published 2007).

Test system: HCV replicon
Assay: HCV replicon replication assay (NPTII ELISA)
Type: cell-based, Hepatitis C virus (Huh-7 cells)
Details: Hepatitis C virus, Huh-7, 72 h, inhibition of HCV replicon replication in Huh-7 HCV replicon-containing cells, three days incubation, NPT level by ELISA; read-out: EC50
Summary of the method: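 Huh-7 cells carrying a Bartenschlager NPTII (neo) HCV replicon, treated 3 days at 37 °C with compound, generally 6 concentrations from 10 to 0.03 micromolar, in equal DMSO across wells. NPTII level, proportional to replication, read by capture ELISA on methanol:acetone-fixed cells; interferon alpha positive control; toxicity scored visually or by MTS.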

Row | SMILES | EC50
1 | CCCCCOc1ccc(N(C(=O)C2CC2)c2nc(-c3cccnc3)cs2)cc1F [Compound 26, N-(3-fluoro-4-(pentyloxy)phenyl)-N-(4-(pyridin-3-yl)thiazol-2-yl)cyclopropanecarboxamide] | < 1 µM
2 | CCCCCCOc1ccc(N(C(N)=O)c2nc(-c3cccnc3)cs2)cc1 [Compound 145, 1-(4-(hexyloxy)phenyl)-1-(4-(pyridin-3-yl)thiazol-2-yl)urea] | < 1 µM
3 | CCCCCCCCOc1ccc(N(C(=O)OCCOCCOCCOCCOC)c2nc(-c3cccnc3)c(F)s2)cc1C(F)(F)F [Compound 171, 2,5,8,11-tetraoxatridecan-13-yl 5-fluoro-4-(pyridin-3-yl)thiazol-2-yl(4-(octyloxy)-3-(trifluoromethyl)phenyl)carbamate] | < 1 µM
4 | CCCCCCCCOc1ccc(N(C(=O)OC)c2nc(-c3ccc(F)c(F)c3)cs2)cc1 [Compound 59, methyl 4-(3,4-difluorophenyl)thiazol-2-yl(4-(octyloxy)phenyl)carbamate] | 1 to 10 µM
5 | CCCCCOc1ccc(N(C(=O)C(=O)OC)c2nc(-c3ccc(F)cc3)cs2)cc1F [Compound 45, methyl 2-((3-fluoro-4-(pentyloxy)phenyl)(4-(4-fluorophenyl)thiazol-2-yl)amino)-2-oxoacetate] | < 1 µM
6 | CCCCCOc1ccc(N(C(=O)CC(=O)OC)c2nc(-c3ccc(F)cc3)cs2)cc1F [Compound 42, methyl 3-((3-fluoro-4-(pentyloxy)phenyl)(4-(4-fluorophenyl)thiazol-2-yl)amino)-3-oxopropanoate] | < 1 µM
7 | CCCCCCCCOc1ccc(N(C(=O)NC2CCCCC2)c2nc(-c3cccnc3)cs2)cc1 [Compound 88, 3-cyclohexyl-1-(4-(octyloxy)phenyl)-1-(4-(pyridin-3-yl)thiazol-2-yl)urea] | 1 to 10 µM
8 | CCCCCOc1ccc(N(C(=O)CC(=O)OC)c2nc(-c3ccc(F)cc3)cs2)cc1C(F)(F)F [Compound 43, methyl 3-((4-(4-fluorophenyl)thiazol-2-yl)(4-(pentyloxy)-3-(trifluoromethyl)phenyl)amino)-3-oxopropanoate] | < 1 µM
9 | C/C=N/N(c1ccc(OCCCCCCCC)c(C(F)(F)F)c1)c1nc(-c2cccnc2)c(F)s1 [Compound 191, (E)-2-(2-ethylidene-1-(4-(octyloxy)-3-(trifluoromethyl)phenyl)hydrazinyl)-5-fluoro-4-(pyridin-3-yl)thiazolo] | 1 to 10 µM
10 | CC/C=N/N(c1ccc(OCCCCCCCC)cc1)c1nc(-c2cccnc2)cs1 [Compound 188, (E)-2-(1-(4-(octyloxy)phenyl)-2-propylidenehydrazinyl)-4-(pyridin-3-yl)thiazolo] | < 1 µM
11 | CCCCCCCCOc1ccc(N(C(=O)CN(C)C)c2nc(-c3cccnc3)cs2)cc1C(F)(F)F [Compound 160, 2-(dimethylamino)-N-(4-(octyloxy)-3-(trifluoromethyl)phenyl)-N-(4-(pyridin-3-yl)thiazol-2-yl)acetamide] | < 1 µM
12 | CCCCCCCCc1ccc(N(C(=O)OCOP(=O)(O)O)c2nc(-c3cccnc3)c(F)s2)cc1C(F)(F)F [Compound 187, phosphonooxymethyl 5-fluoro-4-(pyridin-3-yl)thiazol-2-yl(4-octyl-3-(trifluoromethyl)phenyl)carbamate] | < 1 µM
13 | CCCCCCCOc1ccc(N(C(=O)c2cc(C)on2)c2nc(-c3ccc(Cl)s3)cs2)cc1 [Compound 91, N-(4-(5-chlorothiophen-2-yl)thiazol-2-yl)-N-(4-(heptyloxy)phenyl)-5-methylisoxazole-3-carboxamide] | < 1 µM
14 | CCCCCCCCOc1ccc(N(C(C)=O)c2ncc(-c3cccnc3)s2)cc1C(F)(F)F [Compound 194, N-(4-(octyloxy)-3-(trifluoromethyl)phenyl)-N-(5-(pyridin-3-yl)thiazol-2-yl)acetamide] | < 1 µM
15 | CCCCCOc1ccc(N(C(=O)OC)c2nc(-c3ccncc3)cs2)cc1C(F)(F)F [Compound 36, methyl 4-(pentyloxy)-3-(trifluoromethyl)phenyl(4-(pyridin-4-yl)thiazol-2-yl)carbamate] | < 1 µM
16 | CCCCCOc1ccc(N(C(=O)c2cc(C)on2)c2nc(-c3cccnc3)cs2)cc1C(F)(F)F [Compound 34, 5-methyl-N-(4-(pentyloxy)-3-(trifluoromethyl)phenyl)-N-(4-(pyridin-3-yl)thiazol-2-yl)isoxazole-3-carboxamide] | < 1 µM
17 | CCCCCOc1ccc(N(C(N)=O)c2nc(-c3ccc(O)c(C(N)=O)c3)cs2)cc1F [Compound 109, 5-(2-(1-(3-fluoro-4-(pentyloxy)phenyl)ureido)thiazol-4-yl)-2-hydroxybenzamide] | 1 to 10 µM
18 | CCCCCOc1ccc(N(C(=O)c2cc(C)on2)c2nc(-c3nc4ccccc4s3)cs2)cc1C(F)(F)F [Compound 94, N-(4-(benzo[d]thiazol-2-yl)thiazol-2-yl)-5-methyl-N-(4-(pentyloxy)-3-(trifluoromethyl)phenyl)isoxazole-3-carboxamide] | < 1 µM

Row | SMILES | EC50
19 | CCCCCCCOc1ccc(N(C(=O)C(=O)OC)c2nc(-c3cccnc3)cs2)cc1 [Compound 40, methyl 2-((4-(heptyloxy)phenyl)(4-(pyridin-3-yl)thiazol-2-yl)amino)-2-oxoacetate] | < 1 µM
20 | NC(=O)N(c1ccc(OCC2CCCCC2)c(F)c1)c1nc(-c2ccccn2)cs1 [Compound 118, 1-(4-(cyclohexylmethoxy)-3-fluorophenyl)-1-(4-(pyridin-2-yl)thiazol-2-yl)urea] | 1 to 10 µM
21 | CCCCCCCCOc1ccc(N(C(=O)C(N)=O)c2nc(-c3cccnc3)cs2)cc1C(F)(F)F [Compound 131, N1-(4-(octyloxy)-3-(trifluoromethyl)phenyl)-N1-(4-(pyridin-3-yl)thiazol-2-yl)oxalamide] | < 1 µM
22 | CCCCCCCCOc1ccc(N(C(=O)CO)c2nc(-c3cccnc3)c(F)s2)cc1C(F)(F)F [Compound 169, N-(5-fluoro-4-(pyridin-3-yl)thiazol-2-yl)-2-hydroxy-N-(4-(octyloxy)-3-(trifluoromethyl)phenyl)acetamide] | < 1 µM
23 | CCCCCOc1ccc(N(C)c2nc(C(=O)Nc3ccc(C#N)cc3)cs2)cc1C(F)(F)F [Compound 5, N-(4-cyanophenyl)-2-(methyl(4-(pentyloxy)-3-(trifluoromethyl)phenyl)amino)thiazole-4-carboxamide] | > 10 µM
24 | CCCCCOc1ccc(N(C)c2nc(-c3ccc(CN4CCOCC4)nc3)cs2)cc1C(F)(F)F [Compound 8, N-methyl-4-(6-(morpholinomethyl)pyridin-3-yl)-N-(4-(pentyloxy)-3-(trifluoromethyl)phenyl)thiazol-2-amine] | 1 to 10 µM
25 | CCCCCOc1ccc(N(C(=O)C(=O)OC)c2nc(-c3ccncc3)cs2)cc1C(F)(F)F [Compound 35, methyl 2-oxo-2-((4-(pentyloxy)-3-(trifluoromethyl)phenyl)(4-(pyridin-4-yl)thiazol-2-yl)amino)acetate] | < 1 µM
26 | CCCCCCOc1ccc(N(C(N)=O)c2nc(-c3ccc4c(c3)NC(=O)CO4)cs2)cc1 [Compound 121, 1-(4-(hexyloxy)phenyl)-1-(4-(3-oxo-3,4-dihydro-2H-benzo[b][1,4]oxazin-6-yl)thiazol-2-yl)urea] | 1 to 10 µM
27 | CCCCCOc1ccc(N(C(=O)NC(C)(C)C)c2nc(-c3cccnc3)cs2)cc1C(F)(F)F [Compound 76, 3-tert-butyl-1-(4-(pentyloxy)-3-(trifluoromethyl)phenyl)-1-(4-(pyridin-3-yl)thiazol-2-yl)urea] | < 1 µM
28 | CCCCCCCCOc1ccc(N(C(N)=O)c2nc(-c3ccc(C(=O)N(C)C)nc3)cs2)cc1 [Compound 78, N,N-dimethyl-5-(2-(1-(4-(octyloxy)phenyl)ureido)thiazol-4-yl)picolinamide] | > 10 µM
29 | CCCCCOc1ccc(N(CC(=O)N(CC)CC)c2nc(-c3cccnc3)cs2)cc1C(F)(F)F [Compound 9, N,N-diethyl-2-((4-(pentyloxy)-3-(trifluoromethyl)phenyl)(4-(pyridin-3-yl)thiazol-2-yl)amino)acetamide] | > 10 µM
30 | CCCCCOc1ccc(N(C(N)=O)c2nc(-c3ccncc3)cs2)cc1F [Compound 141, 1-(3-fluoro-4-(pentyloxy)phenyl)-1-(4-(pyridin-4-yl)thiazol-2-yl)urea] | > 10 µM
31 | CCCCOc1ccc(N(C(N)=O)c2nc(-c3ccncc3)cs2)cc1C(F)(F)F [Compound 137, 1-(4-butoxy-3-(trifluoromethyl)phenyl)-1-(4-(pyridin-4-yl)thiazol-2-yl)urea] | < 1 µM
32 | CCCCCOc1ccc(N(C(C)=O)c2nc(-c3ccc(CN(C)C)nc3)cs2)cc1C(F)(F)F [Compound 16, N-(4-(6-((dimethylamino)methyl)pyridin-3-yl)thiazol-2-yl)-N-(4-(pentyloxy)-3-(trifluoromethyl)phenyl)acetamide] | 1 to 10 µM
33 | CCCCCOc1ccc(N(C(=O)C2CC2)c2nc(-c3ccc(C(=O)N(C)C)cn3)cs2)cc1C(F)(F)F [Compound 13, N,N-dimethyl-6-(2-(N-(4-(pentyloxy)-3-(trifluoromethyl)phenyl)cyclopropane-carboxamido)thiazol-4-yl)nicotinamide] | > 10 µM
34 | CC(C)COc1ccc(N(C(N)=O)c2nc(-c3ccccn3)cs2)cc1C(F)(F)F [Compound 150, 1-(4-isobutoxy-3-(trifluoromethyl)phenyl)-1-(4-(pyridin-2-yl)thiazol-2-yl)urea] | < 1 µM
35 | CCCCCOc1ccc(N(C(=O)C(C)C)c2nc(-c3ccc(CN(C)C)nc3)cs2)cc1C(F)(F)F [Compound 19, N-(4-(6-((dimethylamino)methyl)pyridin-3-yl)thiazol-2-yl)-N-(4-(pentyloxy)-3-(trifluoromethyl)phenyl)isobutyramide] | 1 to 10 µM
36 | CCCCOc1ccc(N(C(N)=O)c2nc(-c3ccc(O)c(C(N)=O)c3)cs2)cc1C(F)(F)F [Compound 133, 5-(2-(1-(4-butoxy-3-(trifluoromethyl)phenyl)ureido)thiazol-4-yl)-2-hydroxybenzamide] | < 1 µM
